# Assay results taken from patent US6562825B1, “Piperazine derivatives as modulators of chemokine receptor activity” (Astrazeneca UK Limited, priority 1999, dated 2003).
# Counter-ions that a name gives are not always drawn.
row,SMILES,melting point [°C]
1,"CC(c1ccc(Cl)cc1)N1CCN(CCNC(=O)c2ccc(Cl)cc2OCC(=O)N(C)C)CC1 (stereo not drawn) (as salt: hydrochloride) [Example 9, 4-Chloro-N-(2-{4-[1-(4-chlorophenyl)ethyl]-1-piperazinyl}ethyl)-2-[2-(dimethylamino)-2-oxoethoxy]benzamide hydrochloride]",216 to 217
2,"CN(C)C(=O)COc1cc(Cl)ccc1C(=O)N(C)CCN1CCN(Cc2ccc(Cl)c(Cl)c2)CC1 (as salt: hydrochloride) [Example 13, 4-Chloro-N-{2-[4-(3,4-dichlorobenzyl)-1-piperazinyl]ethyl}-2-[2-dimethylamino)-2-oxoethoxy]-N-methylbenzamide trihydrochloride]",252 to 253
3,"CN(C)C(=O)COc1cc(Cl)ccc1C(=O)NCCN1CCN(C(c2ccccc2)c2ccccc2)CC1 (as salt: hydrochloride) [Example 14, N-[2-(4-Benzhydryl-1-piperazinyl)ethyl]-4-chloro-2-[2-(dimethylamino)-2-oxoethoxy]benzamide trihydrochloride]",228 to 229
4,"CC1CN(Cc2ccc(Cl)c(Cl)c2)C(C)CN1CCNC(=O)c1ccc(Cl)cc1OCC(=O)N(C)C (stereo not drawn) (as salt: hydrochloride) [Example 16, E-4-Chloro-N-{2-[4-(3,4-dichlorobenzyl)-2,5-dimethyl-1-piperazinyl]ethyl}-2-[2-(dimethylamino)-2-oxoethoxy]benzamide dihydrochloride]",220 to 221
5,"CN(C)C(=O)COc1cc(Cl)ccc1C(=O)NCCN1CCN(CCc2ccccc2)CC1 [Example 1, 4-Chloro-2-[2-(dimethylamino)-2-oxoethoxy]-N-[2-(4-phenethyl-1-piperazinyl)ethyl]benzamide]",159 to 160
6,"O=C(NCCN1CCN(Cc2ccc(Cl)c(Cl)c2)CC1)c1ccc(Cl)cc1OCC(=O)N1CCCC1 [Example 7, 4-Chloro-N-{2-[4-(3,4-dichlorobenzyl)-1-piperazinyl]ethyl}-2-[2-oxo-2-(1-pyrrolidinyl)ethoxy]benzamide]",157 to 158
7,"O=C(O)CNC(=O)COc1cc(Cl)ccc1C(=O)NCCN1CCN(Cc2ccc(Cl)c(Cl)c2)CC1 [Example 12, 2-[(2-{5-Chloro-2-[({2-[4-(3,4-dichlorobenzyl)-1-piperazinyl]ethyl}amino)carbonyl]phenoxy}acetyl)amino]acetic acid]",214 to 216

# Other lines, results leading:
row,melting point [°C],SMILES
1,220 to 222,CN(C)CCN(C)C(=O)COc1cc(Cl)ccc1C(=O)NCCN1CCN(Cc2ccc(Cl)c(Cl)c2)CC1
2,162 to 163,"CN(C)C(=O)COc1cc(Cl)ccc1C(=O)NCCN1CCN(Cc2ccc(Cl)c(Cl)c2)CC1 (as salt: hydrochloride) [Example 3, 4-Chloro-N-{2-[4-(3,4-dichlorobenzyl)-1-piperazinyl]ethyl}-2-[2-(dimethylamino)-2-oxoethoxy]benzamide dihydrochloride]"
3,185 to 188,"CCN(CC)C(=O)COc1cc(Cl)ccc1C(=O)NCCN1CCN(Cc2ccc(Cl)c(Cl)c2)CC1 (as salt: hydrochloride) [Example 10, dihydrochloride]"
4,118 to 120,"O=C(O)COc1cc(Cl)ccc1C(=O)NCCN1CCN(Cc2ccc(Cl)c(Cl)c2)CC1 [Example 2, 2-{5-Chloro-2-[({2-[4-(3,4-dichlorobenzyl)-1-piperazinyl]ethyl}amino)carbonyl]phenoxy}acetic acid]"
5,115 to 116,"CC(CO)NC(=O)COc1cc(Cl)ccc1C(=O)NCCN1CCN(Cc2ccc(Cl)c(Cl)c2)CC1 (stereo not drawn) [Example 4, 4-Chloro-N-{2-[4-(3,4-dichlorobenzyl)-1-piperazinyl]ethyl}-2-{2-[(2-hydroxy-1-methylethyl)amino]-2-oxoethoxy}benzamide]"
6,77 to 78,"CC(C)(CO)NC(=O)COc1cc(Cl)ccc1C(=O)NCCN1CCN(Cc2ccc(Cl)c(Cl)c2)CC1 [Example 5, 4-Chloro-N-{2-[4-(3,4-dichlorobenzyl)-1-piperazinyl]ethyl}-2-{2[(2-hydroxy-1,1-dimethylethyl)amino]-2-oxoethoxy}benzamide]"
7,137 to 138,"CNC(=O)COc1cc(Cl)ccc1C(=O)NCCN1CCN(Cc2ccc(Cl)c(Cl)c2)CC1 [Example 6, 4-Chloro-N-{2-[4-(3,4-dichlorobenzyl)-1-piperazinyl]ethyl}-2-[2-(methylamino)-2-oxoethoxy]benzamide]"
8,120 to 122,"NC(=O)COc1cc(Cl)ccc1C(=O)NCCN1CCN(Cc2ccc(Cl)c(Cl)c2)CC1 [Example 8, 2-(2-Amino-2-oxoethoxy)-4-chloro-N-{2-[4-(3,4-dichlorobenzyl)-1-piperazinyl]ethyl}benzamide]"
